Literature values as cited in PMC12005229, “Final results from the phase Ia/Ib study of the novel bromodomain and extra-terminal domain inhibitor, BI 894999, in patients with advanced solid tumors or diffuse large B-cell lymphoma” (ESMO Open, 2025).

Columns and labels:
[1] = test system: patients with relapsed/refractory DLBCL; design: method as in PMID 34581757; conditions: in combination with venetoclax and rituximab, 39 patients with relapsed/refractory DLBCL; cited from earlier work
[2] = test system: patients with relapsed/refractory acute myeloid leukemia; design: method as in PMID 33934351; conditions: 44 patients with relapsed/refractory acute myeloid leukemia; cited from earlier work

Row | Structure (SMILES) | complete responses [1] [%] | overall response rate [1] [%] | efficacy of combination with venetoclax compared with monotherapy [2]
1 | Cc1sc2c(c1C)C(c1ccc(Cl)cc1)=N[C@@H](CC(=O)NCCCN1CCN(C)CC1)c1nnc(C)n1-2 [RO6870810] | 20.5 | 38.5 | –
2 | CCS(=O)(=O)Nc1ccc(Oc2ccc(F)cc2F)c(-c2cn(C)c(=O)c3[nH]ccc23)c1 [mivebresib] | – | – | higher efficacy in the combination group
